Consider ten molecules from US4925877A, “Physiologically active erbstatin analogue compounds and compositions” (Zaidanhojin Biseibutsu Kagaku Kenkyukai, priority 1986, dated 1990).

Assay [1] addresses T1, tyrosine-specific protein-kinase (epidermal growth factor receptor-kinase, A-431 membrane fraction) (Homo sapiens, UniProt P00533).
T1 construct: a membrane fraction of human epidermal carcinoma cells A-431 was used; endogenous in cells; host or cells: A-431 human epidermal carcinoma cells, membrane fraction
The assay is described as follows: TPK-I activity (inhibition of tyrosine-specific protein-kinase / epidermal growth factor receptor-kinase, 32P-ATP, A-431 membrane fraction). The assay is classed as biochemical. Conditions: for IC50: A-431 membrane fraction, EGF, histone, pH 7.4, 0° C., 30 minutes, read-out: TPK-I IC50 (converted). On the procedure: 50 μl of the reaction mixture was sampled and absorbed to Wattman No. 3MM filter membrane and dipped in an ice-cooled TCA. After kept for 30 minutes, the filter membrane was taken out and washed out TCA, ethanol and ether, and the count of ^32 P as stuck to the said filter membrane was measured (a). The same reaction and treatment were carried out, where the test substance only was excluded, and the count of ^32 P on the filter was measured in the same manner (b). Further, the values as measured in the cases where the membrane fraction was excluded were (a') and (b'), respectively. Thus, the percentage of the inhibition of the epiderman growth factor receptor-kinase was calculated from the formula of […].
The TPK-I activity of typical compounds of the present invention was extremely high at a low concentration, as shown in the following Table.

The subject of assay [2] is L 1210 leukemia cells. As to the kind of experiment: Growth inhibition activity against cultured carcinoma cells (L 1210 leukemia cells). It counts as cell-based. Conditions: Mus musculus, L1210, 72 h, read-out: L 1210 IC50 (50%-inhibition concentration against growth). On the procedure: (B) Growth inhibition activity against cultured carcinoma cells:
After the incubation, the number of the cells was counted and the activity was evaluated.

The subject of assay [3] is Psudomonas aeruginosa A3. The assay is described as follows: Antimicrobial activity, MIC by agar dilution method (Psudomonas aeruginosa A3). It counts as cell-based. The note with it: read-out: MIC (Psudomonas aeruginosa A3).
Protocol: (§1) The minimum growth inhibition concentration (MIC) of the compounds of the present invention against various bacteria was measured by means of an agar dilution method using Muller-Hinton medium, which is shown in the following Table.
The test system of assay [4] is Staphylococcus aureus Smith. The assay is described as follows: Antimicrobial activity, MIC by agar dilution method (Staphylococcus aureus Smith). The assay is classed as cell-based. Conditions: read-out: MIC (Staphylococcus aureus Smith).
Protocol: as §1
The target in assay [5] is T1, tyrosine-specific protein-kinase (epidermal growth factor receptor-kinase, A-431 membrane fraction). Conditions: MH435-A, earlier application; cited from earlier work.
In assay [6] the test system is cultured carcinoma cells. Conditions: MH435-A, earlier application; cited from earlier work.
Assay [7] relates to various bacteria. The note with it: MH435-A, earlier application; cited from earlier work.
The mark [8] stands for this setting: L 1210 leukemia cells, 3 days, 37° C., 5% CO2.
The mark [9] stands for this setting: agar dilution method, Muller-Hinton medium.

pIC50: −log10 of the molar value. Values after ≈ are worked out from the molar mass of the structure shown. Like-named read-outs stand apart in the source and are kept apart here. Where only a bound is given, the exact number is not on record here.

T1 sequence (P00533 25-1210): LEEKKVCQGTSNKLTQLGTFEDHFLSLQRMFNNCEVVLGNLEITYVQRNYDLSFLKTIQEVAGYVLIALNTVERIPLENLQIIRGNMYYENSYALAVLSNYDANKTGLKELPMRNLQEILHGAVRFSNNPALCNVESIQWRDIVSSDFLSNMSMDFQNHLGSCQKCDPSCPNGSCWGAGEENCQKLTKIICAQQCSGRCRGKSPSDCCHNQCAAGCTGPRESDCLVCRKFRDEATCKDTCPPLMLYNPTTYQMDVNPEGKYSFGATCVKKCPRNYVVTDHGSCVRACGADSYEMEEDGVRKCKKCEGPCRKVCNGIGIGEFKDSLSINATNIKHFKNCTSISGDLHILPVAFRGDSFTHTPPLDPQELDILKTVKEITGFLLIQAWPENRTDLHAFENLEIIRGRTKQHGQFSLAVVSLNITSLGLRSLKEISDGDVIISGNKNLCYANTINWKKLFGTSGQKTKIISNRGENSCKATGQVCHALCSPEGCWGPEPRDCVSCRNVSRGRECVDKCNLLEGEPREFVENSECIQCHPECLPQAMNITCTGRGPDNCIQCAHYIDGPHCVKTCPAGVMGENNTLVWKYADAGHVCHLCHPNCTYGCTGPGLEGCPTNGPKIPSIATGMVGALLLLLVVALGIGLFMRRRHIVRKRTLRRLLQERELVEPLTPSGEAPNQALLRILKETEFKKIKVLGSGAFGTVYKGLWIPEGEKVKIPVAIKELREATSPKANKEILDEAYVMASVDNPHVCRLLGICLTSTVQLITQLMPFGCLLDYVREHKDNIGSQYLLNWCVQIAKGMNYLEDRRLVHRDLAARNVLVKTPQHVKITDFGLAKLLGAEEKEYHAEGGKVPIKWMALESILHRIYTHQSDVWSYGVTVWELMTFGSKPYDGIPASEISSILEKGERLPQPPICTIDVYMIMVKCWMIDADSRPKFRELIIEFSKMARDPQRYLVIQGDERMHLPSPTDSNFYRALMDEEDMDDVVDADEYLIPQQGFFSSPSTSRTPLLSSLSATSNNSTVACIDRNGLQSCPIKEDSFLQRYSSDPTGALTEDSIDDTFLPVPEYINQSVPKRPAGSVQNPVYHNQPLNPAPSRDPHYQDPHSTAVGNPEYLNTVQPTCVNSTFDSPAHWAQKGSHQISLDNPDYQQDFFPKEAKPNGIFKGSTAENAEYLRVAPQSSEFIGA

Turning to `[C-]#[N+]C=Cc1cc(Br)ccc1O` [Compound 2, 2-(5-bromo-2-hydroxyphenyl)vinylisocyanide], the IC50 was over 28.6 µM in assay [1] and 0.25 mg/L (≈ 1.12 µM) in assay [2] (setting [8]). In addition, the minimum inhibitory concentration (MIC) in assay [3] (setting [9]) turned out to be 12.5 mg/L (≈ 55.8 µM); in assay [4] (setting [9]) it was 6.25 mg/L (≈ 27.9 µM).

In assay [1], `[C-]#[N+]C=Cc1cc(OC)ccc1OC` [Compound 3, 2-(2,5-dimethoxyphenyl)vinylisocyanide] had a pIC50 of under 4.28. The IC50 in assay [2] came out at 0.65 mg/L (≈ 3.44 µM). Besides, the MIC in assay [3] amounted to 25 mg/L (≈ 132 µM); in assay [4] it was 3.12 mg/L (≈ 16.5 µM).

Consider `O=CNC=Cc1cc(Br)ccc1O` [Compound 9, (2-formamidovinyl)-5-bromo-2-hydroxybenzene], for which the IC50 is over 26.4 µM in assay [1] and 12 mg/L (≈ 49.6 µM) in assay [2] (setting [8]). In addition, the MIC in assay [3] (setting [9]) was over 50 mg/L; in assay [4] (setting [9]) it was 100 mg/L (≈ 413 µM).

`COc1ccc(OC)c(C=CNC=O)c1` [Compound 10, (2-formamidovinyl)-2,5-dimethoxybenzene]: the figures for the IC50 in assay [1] and in assay [2] (setting [8]) were over 145 µM and 62 mg/L (≈ 299 µM), respectively. The MIC in assay [3] (setting [9]) and in assay [4] (setting [9]) was over 100 mg/L throughout.

With `COc1ccc(O)c(C=CNC=O)c1` [Compound 11, (2-formamidovinyl)-2-hydroxy-5methoxybenzene], the results for the IC50 in assay [1] and in assay [2] (setting [8]) were over 33.1 µM and 23 mg/L (≈ 119 µM), respectively. For the same molecule, the MIC in assay [3] (setting [9]) is over 50 mg/L; in assay [4] (setting [9]) it was over 100 mg/L.

Consider `O=CNC=Cc1ccccc1O` [Compound 12, (2-formamidovinyl)-2-hydroxybenzene], for which, in assay [2] (setting [8]), the IC50 worked out at 30 mg/L (≈ 184 µM). The results for the MIC in assay [3] (setting [9]) and in assay [4] (setting [9]) were over 50 mg/L and over 100 mg/L, respectively.

Take `O=CNC=Cc1cccc(O)c1O` [Compound 13, (2-formamidovinyl)-2,3-dihydroxybenzene]: the IC50 in assay [1] was 1.67 µM; in assay [2] (setting [8]) it was 2.2 mg/L (≈ 12.3 µM). Further, the MIC in assay [3] (setting [9]) and in assay [4] (setting [9]) was 100 mg/L (≈ 558 µM) in each case.

With `O=CNC=Cc1ccc(O)c(O)c1` [Compound 14, (2-formamidovinyl)-3,4-dihydroxybenzene], the IC50 in assay [1] is 7.26 µM; in assay [2] (setting [8]) it was 22 mg/L (≈ 123 µM). The minimal inhibitory concentration (MIC) in assay [3] (setting [9]) was 25 mg/L (≈ 140 µM); in assay [4] (setting [9]), over 50 mg/L.

As for `CC(=O)NC=Cc1cc(O)ccc1O` [Compound 18, (2-acetamidovinyl)-2,5-dihydroxybenzene], the IC50 in assay [1] is 15.5 µM; in assay [2] (setting [8]) it was 3 mg/L (≈ 15.5 µM).

On to `O=CNC=Cc1cc(O)ccc1O` [MH435-A], for which, in assay [5], the “inhibition of tyrosine-specific protein-kinase activity (in words)” value is given as “can inhibit the said protein-kinase activity in a low concentration”. For the same molecule, the “antitumor activity (in words)” value in assay [6] is given as “antitumor activity”. For the same molecule, the “antimicrobial activity (in words)” value in assay [7] is “has antimicrobial activity”.
